As usually defined, the IC50 is the midpoint of a concentration-inhibition curve. A lower IC50 goes with inhibition by little substance.

One assay has as its target PI3K alpha (Homo sapiens (Human), UniProt P42336). In words: Enzymatic PI3K alpha isoform inhibition (lipid kinase activity, Kinase-Glo luminescence). Type of assay: biochemical. The note with it: Enzymatic assay. The method in brief: (§1)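 IC50s derive from 4-parameter logistic fits of % inhibition across 8 concentrations (usually 10 to 0.003 μM). Lipid kinase reaction: PI3K (10 nM) plus phosphatidylinositol (5 μg/mL) started with 2 μM ATP, stopped near 50% ATP depletion; leftover ATP quantified by Kinase-Glo luminescence.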
A general note: Kinase-Glo reads ATP consumption through a luciferase reaction.

In a further assay the target is PI3K delta (Homo sapiens (Human), UniProt O00329). In words: Enzymatic PI3K delta isoform inhibition (lipid kinase activity, Kinase-Glo luminescence). Type of assay: biochemical. The conditions noted are these: Enzymatic assay. The method in brief: as §1
Sequence of PI3K delta (O00329 other isoform, or with tags, fused parts or gaps linker GGGGGG): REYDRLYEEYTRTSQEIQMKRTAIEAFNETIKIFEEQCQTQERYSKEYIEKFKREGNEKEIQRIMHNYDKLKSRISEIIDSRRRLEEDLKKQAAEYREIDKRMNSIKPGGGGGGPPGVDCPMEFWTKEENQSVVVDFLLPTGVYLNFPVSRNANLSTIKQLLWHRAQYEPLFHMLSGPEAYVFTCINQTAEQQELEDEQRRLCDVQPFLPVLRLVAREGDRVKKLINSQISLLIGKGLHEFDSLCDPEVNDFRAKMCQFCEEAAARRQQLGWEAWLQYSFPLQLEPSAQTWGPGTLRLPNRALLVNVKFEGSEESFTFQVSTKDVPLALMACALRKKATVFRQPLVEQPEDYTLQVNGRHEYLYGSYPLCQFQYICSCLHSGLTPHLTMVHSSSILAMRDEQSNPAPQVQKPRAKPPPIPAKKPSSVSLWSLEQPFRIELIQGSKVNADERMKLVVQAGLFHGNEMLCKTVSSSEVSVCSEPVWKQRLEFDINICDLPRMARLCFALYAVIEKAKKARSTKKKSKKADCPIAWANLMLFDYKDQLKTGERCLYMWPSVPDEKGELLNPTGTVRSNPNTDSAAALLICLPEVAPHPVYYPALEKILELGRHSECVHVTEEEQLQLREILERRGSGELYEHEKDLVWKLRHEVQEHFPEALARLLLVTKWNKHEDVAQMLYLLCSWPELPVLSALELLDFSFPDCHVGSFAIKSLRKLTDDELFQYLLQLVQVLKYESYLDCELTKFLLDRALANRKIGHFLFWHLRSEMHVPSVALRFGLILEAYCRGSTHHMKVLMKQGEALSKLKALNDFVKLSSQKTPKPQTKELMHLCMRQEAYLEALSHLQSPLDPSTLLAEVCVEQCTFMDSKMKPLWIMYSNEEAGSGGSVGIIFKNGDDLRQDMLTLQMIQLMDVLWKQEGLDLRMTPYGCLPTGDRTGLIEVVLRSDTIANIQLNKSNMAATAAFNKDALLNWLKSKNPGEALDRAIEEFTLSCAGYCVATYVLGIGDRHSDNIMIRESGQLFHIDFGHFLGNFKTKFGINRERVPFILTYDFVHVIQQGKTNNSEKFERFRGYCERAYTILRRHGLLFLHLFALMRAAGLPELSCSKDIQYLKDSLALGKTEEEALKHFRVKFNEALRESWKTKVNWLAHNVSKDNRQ

The structures appear in SMILES notation.

Sequence of PI3K alpha (P42336 other isoform, or with tags, fused parts or gaps): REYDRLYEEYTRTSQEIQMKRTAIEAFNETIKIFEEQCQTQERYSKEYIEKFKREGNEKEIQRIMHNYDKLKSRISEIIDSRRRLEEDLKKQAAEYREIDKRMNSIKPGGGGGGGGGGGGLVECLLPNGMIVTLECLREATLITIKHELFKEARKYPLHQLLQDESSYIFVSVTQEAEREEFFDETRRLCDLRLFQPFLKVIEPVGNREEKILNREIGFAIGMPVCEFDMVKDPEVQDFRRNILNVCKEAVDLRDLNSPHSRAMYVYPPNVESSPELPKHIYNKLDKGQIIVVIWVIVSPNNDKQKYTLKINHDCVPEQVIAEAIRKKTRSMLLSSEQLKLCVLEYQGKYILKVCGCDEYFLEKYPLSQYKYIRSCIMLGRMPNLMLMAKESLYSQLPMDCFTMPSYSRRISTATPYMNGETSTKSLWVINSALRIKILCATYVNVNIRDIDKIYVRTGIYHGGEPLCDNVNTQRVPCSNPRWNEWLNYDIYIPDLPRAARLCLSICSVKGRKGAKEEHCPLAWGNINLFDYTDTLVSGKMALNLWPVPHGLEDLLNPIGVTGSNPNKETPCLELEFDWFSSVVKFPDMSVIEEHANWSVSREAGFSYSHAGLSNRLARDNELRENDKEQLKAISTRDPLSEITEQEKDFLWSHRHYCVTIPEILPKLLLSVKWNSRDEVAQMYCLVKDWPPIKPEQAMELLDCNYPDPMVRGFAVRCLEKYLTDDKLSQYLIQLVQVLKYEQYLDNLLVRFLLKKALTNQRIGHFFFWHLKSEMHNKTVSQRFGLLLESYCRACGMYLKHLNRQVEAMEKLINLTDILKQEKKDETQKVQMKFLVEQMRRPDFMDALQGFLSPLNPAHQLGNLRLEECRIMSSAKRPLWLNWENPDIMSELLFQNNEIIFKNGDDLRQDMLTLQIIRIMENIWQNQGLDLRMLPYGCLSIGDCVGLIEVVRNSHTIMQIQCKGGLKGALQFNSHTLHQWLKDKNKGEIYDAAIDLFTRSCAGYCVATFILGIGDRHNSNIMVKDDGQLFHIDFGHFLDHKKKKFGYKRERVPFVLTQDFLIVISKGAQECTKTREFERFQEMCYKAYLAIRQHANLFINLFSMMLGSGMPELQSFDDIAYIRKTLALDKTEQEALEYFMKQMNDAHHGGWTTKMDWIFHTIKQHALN

Regarding `CS(=O)(=O)c1ccc(N2CCOc3ccc(O[C@H]4CCN(C(=O)C5CCOCC5)C4)cc32)cn1` [Example A43, {(S)-3-[4-(6-Methanesulfonyl-pyridin-3-yl)-3,4-dihydro-2H-benzo[1,4]oxazin-6-yloxy]-pyrrolidin-1-yl}-(tetrahydro-pyran-4-yl)-methanone], the IC50 was 4.69 µM at PI3K alpha and 0.054 µM at PI3K delta.

As to `CCOc1ncc(N2CCOc3ccc(O[C@H]4CCN(C(=O)C5CCOCC5)C4)cc32)cc1C` [Example B2, {(S)-3-[4-(6-Ethoxy-5-methyl-pyridin-3-yl)-3,4dihydro-2H-benzo[1,4]oxazin-6-yloxy]-pyrrolidin-1-yl}-(tetrahydro-pyran-4-yl)-methanone], the IC50 at PI3K alpha was 1.64 µM; at PI3K delta, 0.026 µM.

Consider `CCC(=O)N1CC[C@H](Oc2ccc3c(c2)N(c2cnc(OC)c(OC)c2)CCO3)C1` [Example B4, 1-{(S)-3-[4-(5,6-Dimethoxy-pyridin-3-yl)-3,4-dihydro-2H-benzo[1,4]oxazin-6-yloxy]-pyrrolidin-1-yl}-propan-1-one], for which the figures for the IC50 at PI3K alpha and against PI3K delta were 1.23 µM and 0.083 µM, respectively.

Turning to `CCC(=O)N1CC[C@H](Oc2ccc3c(c2)N(c2cncc(S(=O)(=O)C(C)C)c2)CCO3)C1` [Example B5, 1-((S)-3-{4-[5-(Propane-2-sulfonyl)-pyridin-3-yl]-3,4-dihydro-2H-benzo[1,4]oxazin-6-yloxy}-pyrrolidin-1-yl)-propan-1-one], the values for the IC50 at PI3K alpha and against PI3K delta were 0.236 µM and 0.025 µM, respectively.

With `CC[S+]([O-])c1ccc(N2CCOc3ccc(O[C@H]4CCN(C(=O)C5CCOCC5)C4)cc32)cn1` (stereo partly drawn) [Example B7, {(S)-3-[4-(6-Ethanesulfinyl-pyridin-3-yl)-3,4-dihydro-2H-benzo[1,4]oxazin-6-yloxy]-pyrrolidin-1-yl}-(tetrahydro-pyran-4-yl)-methanone], the results for the IC50 against PI3K alpha and at PI3K delta were 3.54 µM and 0.114 µM, respectively.

`Cc1cc(N2CCOc3ccc(O[C@H]4CCN(C(=O)c5cn(C)cn5)C4)cc32)cnc1S(C)(=O)=O` [Example B8, {(S)-3-[4-(6-Methanesulfonyl-5-methyl-pyridin-3-yl)-3,4-dihydro-2H-benzo[1,4]oxazin-6-yloxy]-pyrrolidin-1-yl}-(1-methyl-1H-imidazol-4-yl)-methanone]: the IC50 against PI3K alpha is 0.188 µM; on PI3K delta it was 0.025 µM.

In the case of `COc1cc(N2CCOc3ccc(O[C@H]4CCN(C(=O)C5CCOCC5)C4)cc32)cnc1S(C)(=O)=O` [Example B9, {(S)-3-[4-(6-Methanesulfonyl-5-methoxy-pyridin-3-yl)-3,4-dihydro-2H-benzo[1,4]oxazin-6-yloxy]-pyrrolidin-1-yl}-(tetrahydro-pyran-4-yl)-methanone], the IC50 at PI3K alpha was 1.77 µM; against PI3K delta, 0.078 µM.

Take `COc1ncc(N2CCOc3ccc(O[C@H]4CCN(C(=O)C5CCS(=O)(=O)CC5)C4)cc32)cc1F` [Example B11, (1,1-Dioxo-hexahydro-1lambda*6*-thiopyran-4-yl)-{(S)-3-[4-(5-fluoro-6-methoxy-pyridin-3-yl)-3,4-dihydro-2H-benzo[1,4]oxazin-6-yloxy]-pyrrolidin-1-yl}-methanone]: the values for the IC50 against PI3K alpha and at PI3K delta were 0.823 µM and 0.014 µM, respectively.

As to `COc1ncc(N2CCOc3ccc(O[C@H]4CCN(C(=O)C5CCS(=O)(=O)CC5)C4)cc32)cc1Cl` [Example B12, {(S)-3-[4-(5-Chloro-6-methoxy-pyridin-3-yl)-3,4-dihydro-2H-benzo[1,4]oxazin-6-yloxy]-pyrrolidin-1-yl}-(1,1-dioxo-hexahydro-1lambda*6*-thiopyran-4-yl)-methanone], the values for the IC50 on PI3K alpha and against PI3K delta were 0.365 µM and 0.011 µM, respectively.

In the case of `COc1ncc(N2CCOc3ccc(O[C@H]4CCN(C(=O)C5CCS(=O)(=O)C5)C4)cc32)cc1C` (stereo partly drawn) [Example B13, (1,1-Dioxo-tetrahydro-1lambda*6*-thiophen-3-yl)-{(S)-3-[4-(6-methoxy-5-methyl-pyridin-3-yl)-3,4-dihydro-2H-benzo[1,4]oxazin-6-yloxy]-pyrrolidin-1-yl}-methanone], the IC50 against PI3K alpha came out at 0.862 µM; on PI3K delta it was 0.062 µM.

`COc1ncc(N2CCOc3ccc(O[C@H]4CCN(C(=O)C5CCS(=O)(=O)CC5)C4)cc32)cc1C(F)(F)F` [Example B14, (1,1-Dioxo-hexahydro-1lambda*6*-thiopyran-4-yl)-{(S)-3-[4-(6-methoxy-5-trifluoromethyl-pyridin-3-yl)-3,4-dihydro-2H-benzo[1,4]oxazin-6-yloxy]-pyrrolidin-1-yl}-methanone]: the IC50 was 0.244 µM on PI3K alpha and 0.006 µM at PI3K delta.

For `COc1ncc(N2CCOc3ccc(O[C@H]4CCN(C(=O)C5CCOC5)C4)cc32)cc1C` (stereo partly drawn) [Example B15, {(S)-3-[4-(6-Methoxy-5-methyl-pyridin-3-yl)-3,4-dihydro-2H-benzo[1,4]oxazin-6-yloxy]-pyrrolidin-1-yl}-(tetrahydro-furan-3-yl)-methanone], the values for the IC50 against PI3K alpha and against PI3K delta were 2.65 µM and 0.031 µM, respectively.

Regarding `COc1ncc(N2CCOc3ccc(O[C@H]4CCN(C(=O)C5CCOC5)C4)cc32)cc1C` (stereo partly drawn) [Example B16, {(S)-3-[4-(6-Methoxy-5-methyl-pyridin-3-yl)-3,4-dihydro-2H-benzo[1,4]oxazin-6-yloxy]-pyrrolidin-1-yl}-(tetrahydro-furan-3-yl)-methanone], the values for the IC50 against PI3K alpha and against PI3K delta were 4.12 µM and 0.037 µM, respectively.

In the case of `CCOc1ncc(N2CCOc3ccc(O[C@H]4CCN(C(=O)C5CCS(=O)(=O)CC5)C4)cc32)cc1C` [Example B17, (1,1-Dioxo-hexahydro-1lambda*6*-thiopyran-4-yl)-{(S)-3-[4-(6-ethoxy-5-methyl-pyridin-3-yl)-3,4-dihydro-2H-benzo[1,4]oxazin-6-yloxy]-pyrrolidin-1-yl}-methanone], the results for the IC50 against PI3K alpha and against PI3K delta were 2.09 µM and 0.023 µM, respectively.

Turning to `COc1ncc(N2CCOc3ccc(O[C@H]4CCN(C(=O)C5CCOCC5)C4)cc32)cc1F` [Example B18], the IC50 at PI3K alpha was 0.723 µM; against PI3K delta it was 0.012 µM.

As to `CCc1cc(N2CCOc3ccc(O[C@H]4CCN(C(=O)C5CCS(=O)(=O)CC5)C4)cc32)cnc1OC` [Example B19, (1,1-Dioxo-hexahydro-1lambda*6*-thiopyran-4-yl)-{(S)-3-[4-(5-ethyl-6-methoxy-pyridin-3-yl)-3,4-dihydro-2H-benzo[1,4]oxazin-6-yloxy]-pyrrolidin-1-yl}-methanone], the IC50 against PI3K alpha is 1.16 µM; on PI3K delta, 0.033 µM.

For `COc1ncc(N2CCOc3ccc(O[C@H]4CCN(C(=O)c5cnn(C)c5)C4)cc32)cc1C` [Example B20, {(S)-3-[4-(6-Methoxy-5-methyl-pyridin-3-yl)-3,4-dihydro-2H-benzo[1,4]oxazin-6-yloxy]-pyrrolidin-1-yl}-(1-methyl-1H-pyrazol-4-yl)-methanone], the IC50 was 0.339 µM on PI3K alpha and 0.047 µM against PI3K delta.

For the compound `COc1ncc(N2CCOc3ccc(O[C@H]4CCN(C(=O)c5ccn(C)n5)C4)cc32)cc1C` [Example B21, {(S)-3-[4-(6-Methoxy-5-methyl-pyridin-3-yl)-3,4-dihydro-2H-benzo[1,4]oxazin-6-yloxy]-pyrrolidin-1-yl}-(1-methyl-1H-pyrazol-3-yl)-methanone], the IC50 was 0.666 µM against PI3K alpha and 0.013 µM against PI3K delta.

As for `Cc1cc(N2CCOc3ccc(O[C@H]4CCN(C(=O)c5ccncc5)C4)cc32)cnc1S(C)(=O)=O` [Example B22, {(S)-3-[4-(6-Methanesulfonyl-5-methyl-pyridin-3-yl)-3,4-dihydro-2H-benzo[1,4]oxazin-6-yloxy]-pyrrolidin-1-yl}-pyridin-4-yl-methanone], the half-inhibitory concentration (IC50) was 0.589 µM against PI3K alpha and 0.005 µM against PI3K delta.

As to `Cc1cc(N2CCOc3ccc(O[C@H]4CCN(C(=O)c5cncnc5)C4)cc32)cnc1S(C)(=O)=O` [Example B23, {(S)-3-[4-(6-Methanesulfonyl-5-methyl-pyridin-3-yl)-3,4-dihydro-2H-benzo[1,4]oxazin-6-yloxy]-pyrrolidin-1-yl}-pyrimidin-5-yl-methanone], the IC50 on PI3K alpha was 1 µM; on PI3K delta, 0.028 µM.

Regarding `Cc1cc(N2CCOc3ccc(O[C@H]4CCN(C(=O)c5cocn5)C4)cc32)cnc1S(C)(=O)=O` [Example B24, {(S)-3-[4-(6-Methanesulfonyl-5-methyl-pyridin-3-yl)-3,4-dihydro-2H-benzo[1,4]oxazin-6-yloxy]-pyrrolidin-1-yl}-oxazol-4-yl-methanone], the IC50 against PI3K alpha was 0.212 µM; at PI3K delta, 0.008 µM.

Consider `Cc1cc(N2CCOc3ccc(O[C@H]4CCN(C(=O)c5cnco5)C4)cc32)cnc1S(C)(=O)=O` [Example B25, {(S)-3-[4-(6-Methanesulfonyl-5-methyl-pyridin-3-yl)-3,4-dihydro-2H-benzo[1,4]oxazin-6-yloxy]-pyrrolidin-1-yl}-oxazol-5-yl-methanone], for which the IC50 at PI3K alpha came out at 0.665 µM; on PI3K delta it was 0.04 µM.

For `Cc1cc(N2CCOc3ccc(O[C@H]4CCN(C(=O)C5CCOC(C)(C)C5)C4)cc32)cnc1S(C)(=O)=O` (stereo partly drawn) [Example B26, (2,2-Dimethyl-tetrahydro-pyran-4-yl)-{(S)-3-[4-(6-methanesulfonyl-5-methyl-pyridin-3-yl)-3,4-dihydro-2H-benzo[1,4]oxazin-6-yloxy]-pyrrolidin-1-yl}-methanone], the IC50 on PI3K alpha was 0.281 µM; at PI3K delta it was less than 0.009 µM.

Take `CC(C)S(=O)(=O)c1cncc(N2CCOc3ccc(O[C@H]4CCN(C(=O)C5CCS(=O)(=O)CC5)C4)cc32)c1` [Example B29, (1,1-Dioxo-hexahydro-1lambda*6*-thiopyran-4-yl)-((S)-3-{4-[5-(propane-2-sulfonyl)-pyridin-3-yl]-3,4-dihydro-2H-benzo[1,4]oxazin-6-yloxy}-pyrrolidin-1-yl)-methanone]: the IC50 against PI3K alpha turned out to be 0.558 µM; at PI3K delta, 0.041 µM.
